# Experimental data as given in ChEMBL document CHEMBL4665756, “Synthesis, crystal structure and biological activity of novel analogues of tricyclic drugs” (Bioorg Med Chem Lett, 2020).
# pKi: −log10 of the molar value.
# What was measured:
# [1] = target: Sodium-dependent serotonin transporter (Homo sapiens, UniProt P31645); assay: Binding affinity to SERT (unknown origin); settings: for pKi: read-out: Ki
# Histamine H1 receptor = Histamine H1 receptor (Homo sapiens, UniProt P35367); assay: Binding affinity to H1 receptor (unknown origin); settings: for pKi: read-out: Ki
# Chain of Histamine H1 receptor (P35367 whole entry): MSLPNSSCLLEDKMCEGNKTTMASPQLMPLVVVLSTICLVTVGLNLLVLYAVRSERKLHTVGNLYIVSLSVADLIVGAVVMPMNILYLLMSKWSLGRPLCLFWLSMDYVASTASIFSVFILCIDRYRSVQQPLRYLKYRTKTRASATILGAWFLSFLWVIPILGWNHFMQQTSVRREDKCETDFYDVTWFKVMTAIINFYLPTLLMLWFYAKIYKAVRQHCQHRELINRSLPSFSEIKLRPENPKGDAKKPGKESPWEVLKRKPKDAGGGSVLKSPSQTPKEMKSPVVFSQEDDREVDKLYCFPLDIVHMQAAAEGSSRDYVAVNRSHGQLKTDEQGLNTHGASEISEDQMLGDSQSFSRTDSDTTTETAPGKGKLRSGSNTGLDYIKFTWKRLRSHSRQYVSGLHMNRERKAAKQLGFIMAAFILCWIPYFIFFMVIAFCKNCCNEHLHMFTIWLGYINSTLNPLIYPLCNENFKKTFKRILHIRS
# [2] = target: 5-hydroxytryptamine receptor 7 (Homo sapiens, UniProt P34969); assay: Binding affinity to 5HT7 receptor (unknown origin)
# Chain of 5-hydroxytryptamine receptor 7 (P34969 whole entry): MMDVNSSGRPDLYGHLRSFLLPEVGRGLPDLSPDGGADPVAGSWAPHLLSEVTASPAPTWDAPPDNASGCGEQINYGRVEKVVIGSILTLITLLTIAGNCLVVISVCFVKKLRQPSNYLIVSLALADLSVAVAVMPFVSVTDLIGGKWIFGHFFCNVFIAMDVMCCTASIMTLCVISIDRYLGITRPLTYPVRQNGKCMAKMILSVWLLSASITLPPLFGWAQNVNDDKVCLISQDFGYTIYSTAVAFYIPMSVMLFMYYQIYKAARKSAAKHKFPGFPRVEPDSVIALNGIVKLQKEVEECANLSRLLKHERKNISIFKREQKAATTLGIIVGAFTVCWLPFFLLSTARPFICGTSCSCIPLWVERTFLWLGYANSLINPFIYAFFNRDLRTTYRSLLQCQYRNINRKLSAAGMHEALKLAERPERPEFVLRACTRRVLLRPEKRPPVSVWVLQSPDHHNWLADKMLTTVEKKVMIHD
# [3] = target: 5-hydroxytryptamine receptor 6 (Homo sapiens, UniProt P50406); assay: Binding affinity to 5HT6 receptor (unknown origin)
# Chain of 5-hydroxytryptamine receptor 6 (P50406 whole entry): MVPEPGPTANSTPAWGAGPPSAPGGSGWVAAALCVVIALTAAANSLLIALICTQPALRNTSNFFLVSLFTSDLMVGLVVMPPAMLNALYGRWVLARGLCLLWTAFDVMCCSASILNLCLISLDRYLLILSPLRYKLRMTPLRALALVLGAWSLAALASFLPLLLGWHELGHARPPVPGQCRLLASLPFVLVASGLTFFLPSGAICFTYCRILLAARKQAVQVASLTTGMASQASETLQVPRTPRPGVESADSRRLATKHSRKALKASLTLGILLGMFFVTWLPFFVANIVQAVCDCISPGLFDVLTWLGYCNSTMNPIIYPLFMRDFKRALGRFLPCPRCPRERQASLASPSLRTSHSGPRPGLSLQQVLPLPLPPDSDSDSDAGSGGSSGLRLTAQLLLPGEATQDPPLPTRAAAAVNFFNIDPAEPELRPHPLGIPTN
# [4] = target: 5-hydroxytryptamine receptor 2A (Homo sapiens, UniProt P28223); assay: Binding affinity to 5HT2A receptor (unknown origin)
# Chain of 5-hydroxytryptamine receptor 2A (P28223 whole entry): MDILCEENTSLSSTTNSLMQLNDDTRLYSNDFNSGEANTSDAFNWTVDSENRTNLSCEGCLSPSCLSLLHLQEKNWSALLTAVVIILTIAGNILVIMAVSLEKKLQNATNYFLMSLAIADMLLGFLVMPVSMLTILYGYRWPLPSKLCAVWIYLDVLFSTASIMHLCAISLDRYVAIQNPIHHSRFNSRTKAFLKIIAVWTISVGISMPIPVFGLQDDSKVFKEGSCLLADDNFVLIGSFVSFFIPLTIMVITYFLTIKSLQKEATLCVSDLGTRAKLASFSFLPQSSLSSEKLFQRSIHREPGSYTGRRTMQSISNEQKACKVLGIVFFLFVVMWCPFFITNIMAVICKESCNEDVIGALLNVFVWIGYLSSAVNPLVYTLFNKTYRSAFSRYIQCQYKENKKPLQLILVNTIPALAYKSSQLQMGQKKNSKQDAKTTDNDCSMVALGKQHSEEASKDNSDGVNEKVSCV
# [5] = target: T1, 5-hydroxytryptamine receptor 1A (Homo sapiens, UniProt P08908); assay: Binding affinity to 5HT1A receptor (unknown origin)
# T1 sequence (P08908 whole entry): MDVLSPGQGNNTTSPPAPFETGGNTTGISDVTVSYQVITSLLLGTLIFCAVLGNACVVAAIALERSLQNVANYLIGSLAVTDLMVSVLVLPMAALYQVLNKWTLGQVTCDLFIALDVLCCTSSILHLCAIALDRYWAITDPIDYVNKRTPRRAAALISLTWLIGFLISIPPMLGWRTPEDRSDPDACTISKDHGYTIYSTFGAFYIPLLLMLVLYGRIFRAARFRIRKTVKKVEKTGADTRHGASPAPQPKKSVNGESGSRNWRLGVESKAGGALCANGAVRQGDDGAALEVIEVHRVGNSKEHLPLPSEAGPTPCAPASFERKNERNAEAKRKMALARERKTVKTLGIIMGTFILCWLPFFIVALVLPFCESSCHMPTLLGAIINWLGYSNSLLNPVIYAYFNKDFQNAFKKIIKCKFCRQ
# D(2) dopamine receptor = D(2) dopamine receptor (Homo sapiens, UniProt P14416); assay: Binding affinity to D2 receptor (unknown origin)
# Chain of D(2) dopamine receptor (P14416 whole entry): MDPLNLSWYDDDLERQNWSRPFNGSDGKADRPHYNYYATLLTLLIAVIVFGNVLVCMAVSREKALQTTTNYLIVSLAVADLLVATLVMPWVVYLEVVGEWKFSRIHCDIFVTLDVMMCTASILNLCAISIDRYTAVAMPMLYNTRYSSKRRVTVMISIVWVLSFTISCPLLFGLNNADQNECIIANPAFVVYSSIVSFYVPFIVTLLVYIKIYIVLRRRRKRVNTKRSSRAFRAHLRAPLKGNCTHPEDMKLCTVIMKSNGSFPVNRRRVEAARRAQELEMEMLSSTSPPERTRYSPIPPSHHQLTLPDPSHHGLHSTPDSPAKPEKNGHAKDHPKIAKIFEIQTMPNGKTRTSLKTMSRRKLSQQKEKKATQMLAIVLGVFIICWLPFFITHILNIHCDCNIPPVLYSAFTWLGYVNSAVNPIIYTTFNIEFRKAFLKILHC
# Chain of Sodium-dependent serotonin transporter (P31645 whole entry): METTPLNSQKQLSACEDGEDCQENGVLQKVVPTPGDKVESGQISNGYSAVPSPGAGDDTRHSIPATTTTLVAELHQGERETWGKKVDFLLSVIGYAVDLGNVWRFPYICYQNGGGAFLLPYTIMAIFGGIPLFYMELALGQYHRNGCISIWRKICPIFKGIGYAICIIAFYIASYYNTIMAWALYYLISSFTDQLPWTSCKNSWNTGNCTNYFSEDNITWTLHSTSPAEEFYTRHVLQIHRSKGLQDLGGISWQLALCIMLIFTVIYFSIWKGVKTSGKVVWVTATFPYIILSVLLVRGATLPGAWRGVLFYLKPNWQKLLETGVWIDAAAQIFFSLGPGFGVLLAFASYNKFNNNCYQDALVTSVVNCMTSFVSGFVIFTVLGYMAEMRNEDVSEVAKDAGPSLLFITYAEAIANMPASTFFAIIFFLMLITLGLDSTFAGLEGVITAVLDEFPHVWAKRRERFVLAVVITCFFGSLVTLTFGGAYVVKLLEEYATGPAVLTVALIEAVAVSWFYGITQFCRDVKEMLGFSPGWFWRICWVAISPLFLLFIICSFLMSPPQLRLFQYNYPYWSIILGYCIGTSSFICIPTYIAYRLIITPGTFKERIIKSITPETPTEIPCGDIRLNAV
Ki [1],Ki (Histamine H1 receptor),pKi [2],pKi [3],pKi [4],pKi [5],pKi [1],pKi (D(2) dopamine receptor),pKi (Histamine H1 receptor),SMILES
Not Active,Not Active,,,,,,,,COc1cc2c(cc1OC)N(CCCN(C)C)C(=O)c1ccccc1N(C)C2=O
Not Active,Not Active,,,,,,,,CN(C)CCN1C(=O)c2ccccc2C(=O)N(Cc2ccccc2)c2ccccc21
Not Active,Not Active,,,,,,,,CN(C)CCCN1C(=O)c2cc(Cl)ccc2N(C)C(=O)c2cc3ccccc3cc21
,Not Active,< 4.00,4.12,< 4.00,4.40,< 4.00,4.72,,O=C1c2ccccc2/C=C\c2ccccc2N1CCCN1CCOCC1
,,4.07,4.70,4.13,4.11,5.34,4.94,6.92,CN(C)CCN1C(=O)c2ccccc2/C=C\c2ccccc21
Not Active,,< 4.00,4.68,4.32,4.06,,5.12,< 5.30,CN1CCN(CCCN2C(=O)c3ccccc3/C=C\c3ccccc32)CC1
Not Active,,,,,,,,< 5.00,CN(C)CCCN1C(=O)c2ccccc2N(C)C(=O)c2ccccc21
,,,,,,4.91,,6.54,CN(C)CCN1C(=O)c2ccccc2CCc2ccccc21
Not Active,,,,,,,,< 5.30,CN(C)CCN1C(=O)c2cc(Cl)ccc2N(C)C(=O)c2cc3ccccc3cc21
,,4.91,5.48,5.14,5.60,4.96,4.52,7.70,CN(C)CCN1C(=O)c2ccccc2N(C)c2ccccc21 [DIBENZEPIN]
,,< 4.00,4.63,4.77,4.38,4.43,5.05,6.37,CN(C)CCCN1C(=O)c2ccccc2/C=C\c2ccccc21

SMILES,Ki [1],Ki (Histamine H1 receptor),pKi [2],pKi [3],pKi [4],pKi [5],pKi [1],pKi (D(2) dopamine receptor),pKi (Histamine H1 receptor)
CN(C)CCCN1C(=O)c2ccccc2CCc2ccccc21,,,,,,,< 4.00,,6.09
CN(C)CCN1C(=O)c2ccccc2N(C)C(=O)c2ccccc21,Not Active,,< 4.00,4.39,< 4.00,< 4.00,,4.19,< 5.00
COc1cc2c(cc1OC)N(CCN(C)C)C(=O)c1ccccc1N(C)C2=O,,,,,,,< 4.00,,< 5.00
CN(C)CCCN1C(=O)c2ccccc2C(=O)N(Cc2ccccc2)c2ccccc21,,Not Active,,,,,< 4.00,,
